Experimental data taken from the NIST ThermoML archive (doi:10.1021/je900124n).
“And” between values parts separate entries of the source, which are not always exact repeats. Equal values may be shown once.

Conditions: Fluid (supercritical or subcritical phases), Buoyancy - hydrostatic balance with magnetic suspension - two sinkers

CCC [propane]
Conditions | mass density
420 K, 8228.3 kPa | 219.041 kg/m3
420 K, 8228.4 kPa | 219.041 kg/m3 and 219.043 kg/m3
420 K, 8228.5 kPa | 219.044 kg/m3 and 219.042 kg/m3 and 219.043 kg/m3
420 K, 8228.6 kPa | 219.042 kg/m3 and 219.043 kg/m3
420 K, 8848 kPa | 242.768 kg/m3 and 242.766 kg/m3 and 242.77 kg/m3
420 K, 8848.1 kPa | 242.767 kg/m3
420 K, 8848.2 kPa | 242.772 kg/m3 and 242.768 kg/m3
420 K, 10126 kPa | 279.933 kg/m3 and 279.935 kg/m3
420 K, 10127 kPa | 279.933 kg/m3 and 279.936 kg/m3 and 279.935 kg/m3
420 K, 13593 kPa | 335.538 kg/m3 [middle of 4 runs]
420 K, 20930 kPa | 389.39 kg/m3
420 K, 20931 kPa | 389.391 kg/m3 and 389.393 kg/m3
420.01 K, 629.66 kPa | 8.2291 kg/m3
420.01 K, 629.67 kPa | 8.229 kg/m3
420.01 K, 4243.9 kPa | 72.2481 kg/m3 and 72.2491 kg/m3 and 72.2487 kg/m3
420.01 K, 4244 kPa | 72.2505 kg/m3 and 72.2532 kg/m3 and 72.2519 kg/m3
420.01 K, 6606 kPa | 147.759 kg/m3
420.01 K, 6606.4 kPa | 147.771 kg/m3
420.01 K, 13593 kPa | 335.538 kg/m3 and 335.537 kg/m3
420.01 K, 20931 kPa | 389.392 kg/m3 and 389.394 kg/m3
420.01 K, 20932 kPa | 389.393 kg/m3
440 K, 368.32 kPa | 4.5138 kg/m3 and 4.514 kg/m3 and 4.5139 kg/m3
440 K, 658.93 kPa | 8.1892 kg/m3
440 K, 658.95 kPa | 8.1897 kg/m3
440 K, 1032.5 kPa | 13.0703 kg/m3 and 13.0712 kg/m3
440 K, 1032.8 kPa | 13.0744 kg/m3
440 K, 1733.1 kPa | 22.7483 kg/m3
440 K, 1733.2 kPa | 22.75 kg/m3 and 22.7499 kg/m3 and 22.7504 kg/m3
440 K, 1733.4 kPa | 22.752 kg/m3
440 K, 2721.5 kPa | 37.7309 kg/m3
440 K, 2721.7 kPa | 37.7344 kg/m3
440 K, 2721.8 kPa | 37.7372 kg/m3
440 K, 2721.9 kPa | 37.7372 kg/m3
440 K, 2722.1 kPa | 37.7402 kg/m3
440 K, 3865 kPa | 57.5204 kg/m3
440 K, 3865.3 kPa | 57.5255 kg/m3
440 K, 3865.4 kPa | 57.5267 kg/m3
440 K, 3865.5 kPa | 57.5266 kg/m3
440 K, 3865.7 kPa | 57.532 kg/m3
440 K, 4613.1 kPa | 72.2413 kg/m3 [middle of 4 runs]
440 K, 5803.9 kPa | 99.3306 kg/m3 and 99.3318 kg/m3
440 K, 5804 kPa | 99.3333 kg/m3 and 99.3338 kg/m3
440 K, 7526.8 kPa | 147.61 kg/m3 and 147.611 kg/m3
440 K, 7535.9 kPa | 147.904 kg/m3 and 147.903 kg/m3
440 K, 7536 kPa | 147.904 kg/m3
440 K, 7762.5 kPa | 154.944 kg/m3
440 K, 7762.6 kPa | 154.945 kg/m3 and 154.944 kg/m3
440 K, 9826.6 kPa | 218.701 kg/m3 and 218.702 kg/m3 and 218.7 kg/m3
440 K, 9826.7 kPa | 218.702 kg/m3 and 218.7 kg/m3 and 218.701 kg/m3
440.01 K, 658.93 kPa | 8.1888 kg/m3
440.01 K, 658.95 kPa | 8.1894 kg/m3 and 8.1895 kg/m3
440.01 K, 1032.5 kPa | 13.0692 kg/m3
440.01 K, 1032.8 kPa | 13.0752 kg/m3
440.01 K, 4613.1 kPa | 72.2397 kg/m3 and 72.2408 kg/m3 and 72.2337 kg/m3
440.01 K, 7526.8 kPa | 147.613 kg/m3 and 147.61 kg/m3 and 147.611 kg/m3
440.01 K, 7526.9 kPa | 147.613 kg/m3 and 147.612 kg/m3
460 K, 384.07 kPa | 4.4943 kg/m3 [middle of 5 runs]
460 K, 687.74 kPa | 8.1494 kg/m3
